# Assays:
# Format in all cases: functional
# Avena sterilis [1] = assay: Herbicidal activity against Avena sterilis accession P02 assessed as weed survival at 16 times field recommended herbicide dose
# Avena sterilis [2] = assay: Herbicidal activity against Avena sterilis accession P09 assessed as weed survival at 16 times field recommended herbicide dose
# Avena sterilis [3] = assay: Herbicidal activity against Avena sterilis accession P03 assessed as weed survival at 8 times field recommended herbicide dose
# Avena sterilis [4] = assay: Herbicidal activity against Avena sterilis accession P20 assessed as weed survival at 16 times field recommended herbicide dose
# Avena sterilis [5] = assay: Herbicidal activity against Avena sterilis accession P05 assessed as weed survival at 4 times field recommended herbicide dose
# Avena sterilis [6] = assay: Herbicidal activity against Avena sterilis accession P04 assessed as induction of weed mortality
# Avena sterilis [7] = assay: Herbicidal activity against Avena sterilis accession P08 assessed as weed survival at 1 times field recommended herbicide dose
# Avena sterilis [8] = assay: Herbicidal activity against Avena sterilis accession P14 assessed as weed survival at 16 times field recommended herbicide dose
# Avena sterilis [9] = assay: Herbicidal activity against Avena sterilis accession P15 assessed as weed survival at 1 times field recommended herbicide dose
# Avena sterilis [10] = assay: Herbicidal activity against Avena sterilis accession P20 assessed as induction of weed mortality
# Avena sterilis [11] = assay: Herbicidal activity against Avena sterilis accession P02 assessed as weed survival at 1 times field recommended herbicide dose
# Avena sterilis [12] = assay: Herbicidal activity against Avena sterilis accession P02 assessed as induction of weed mortality
# Avena sterilis [13] = assay: Herbicidal activity against Avena sterilis accession P21S assessed as weed survival at 1/16 times field recommended herbicide dose
# Avena sterilis [14] = assay: Herbicidal activity against Avena sterilis accession P21S assessed as weed survival at 1/4 times field recommended herbicide dose
# Avena sterilis [15] = assay: Herbicidal activity against Avena sterilis accession P21S assessed as weed survival at 1/8 times field recommended herbicide dose
# Avena sterilis [16] = assay: Herbicidal activity against Avena sterilis accession P13S assessed as weed survival at 1/8 times field recommended herbicide dose
# Avena sterilis [17] = assay: Herbicidal activity against Avena sterilis accession P08 assessed as weed survival at 32 times field recommended herbicide dose
# Avena sterilis [18] = assay: Herbicidal activity against Avena sterilis accession P20 assessed as weed survival at 1 times field recommended herbicide dose
# Avena sterilis [19] = assay: Herbicidal activity against Avena sterilis accession P13S assessed as weed survival at 1 times field recommended herbicide dose
# Avena sterilis [20] = assay: Herbicidal activity against Avena sterilis accession P16 assessed as weed survival at 4 times field recommended herbicide dose
# Avena sterilis [21] = assay: Herbicidal activity against Avena sterilis accession P16 assessed as weed survival at 32 times field recommended herbicide dose
# Avena sterilis [22] = assay: Herbicidal activity against Avena sterilis accession P15 assessed as weed survival at 4 times field recommended herbicide dose
# Avena sterilis [23] = assay: Herbicidal activity against Avena sterilis accession P11 assessed as induction of weed mortality
# Avena sterilis [24] = assay: Herbicidal activity against Avena sterilis accession P01 assessed as weed survival at 8 times field recommended herbicide dose
# Avena sterilis [25] = assay: Herbicidal activity against Avena sterilis accession P04 assessed as weed survival at 4 times field recommended herbicide dose
# Avena sterilis [26] = assay: Herbicidal activity against Avena sterilis accession P14 assessed as weed survival at 8 times field recommended herbicide dose
# Avena sterilis [27] = assay: Herbicidal activity against Avena sterilis accession P06S assessed as weed survival at 1 times field recommended herbicide dose
# Avena sterilis [28] = assay: Herbicidal activity against Avena sterilis accession P21S assessed as induction of weed mortality
# Avena sterilis [29] = assay: Herbicidal activity against Avena sterilis accession P10S assessed as weed survival at 1/8 times field recommended herbicide dose
# Avena sterilis [30] = assay: Herbicidal activity against Avena sterilis accession P22 assessed as weed survival at 4 times field recommended herbicide dose
# Avena sterilis [31] = assay: Herbicidal activity against Avena sterilis accession P21S assessed as weed survival at 1/32 times field recommended herbicide dose
# Avena sterilis [32] = assay: Herbicidal activity against Avena sterilis accession P07 assessed as weed survival at 32 times field recommended herbicide dose
# Avena sterilis [33] = assay: Herbicidal activity against Avena sterilis accession P03 assessed as weed survival at 1 times field recommended herbicide dose
# Avena sterilis [34] = assay: Herbicidal activity against Avena sterilis accession P07 assessed as induction of weed mortality
# Avena sterilis [35] = assay: Herbicidal activity against Avena sterilis accession P06S assessed as weed survival at 1/16 times field recommended herbicide dose
# Avena sterilis [36] = assay: Herbicidal activity against Avena sterilis accession P13S assessed as weed survival at 1/4 times field recommended herbicide dose
# Avena sterilis [37] = assay: Herbicidal activity against Avena sterilis accession P14 assessed as induction of weed mortality
# Avena sterilis [38] = assay: Herbicidal activity against Avena sterilis accession P19S assessed as induction of weed mortality
# Avena sterilis [39] = assay: Herbicidal activity against Avena sterilis accession P21S assessed as weed survival at 1 times field recommended herbicide dose
# Avena sterilis [40] = assay: Herbicidal activity against Avena sterilis accession P02 assessed as weed survival at 4 times field recommended herbicide dose
# Avena sterilis [41] = assay: Herbicidal activity against Avena sterilis accession P08 assessed as induction of weed mortality
# Avena sterilis [42] = assay: Herbicidal activity against Avena sterilis accession P11 assessed as weed survival at 16 times field recommended herbicide dose
# Avena sterilis [43] = assay: Herbicidal activity against Avena sterilis accession P01 assessed as weed survival at 16 times field recommended herbicide dose
# Avena sterilis [44] = assay: Herbicidal activity against Avena sterilis accession P10S assessed as weed survival at 1/16 times field recommended herbicide dose
# Avena sterilis [45] = assay: Herbicidal activity against Avena sterilis accession P05 assessed as weed survival at 32 times field recommended herbicide dose
# Avena sterilis [46] = assay: Herbicidal activity against Avena sterilis accession P06S assessed as weed survival at 1/8 times field recommended herbicide dose
# Avena sterilis [47] = assay: Herbicidal activity against Avena sterilis accession P14 assessed as weed survival at 4 times field recommended herbicide dose
# Avena sterilis [48] = assay: Herbicidal activity against Avena sterilis accession P09 assessed as weed survival at 4 times field recommended herbicide dose
# Avena sterilis [49] = assay: Herbicidal activity against Avena sterilis accession P08 assessed as weed survival at 16 times field recommended herbicide dose
# Avena sterilis [50] = assay: Herbicidal activity against Avena sterilis accession P03 assessed as induction of weed mortality
# Avena sterilis [51] = assay: Herbicidal activity against Avena sterilis accession P02 assessed as weed survival at 8 times field recommended herbicide dose
# Avena sterilis [52] = assay: Herbicidal activity against Avena sterilis accession P14 assessed as weed survival at 1 times field recommended herbicide dose
# Avena sterilis [53] = assay: Herbicidal activity against Avena sterilis accession P17 assessed as induction of weed mortality
# Avena sterilis [54] = assay: Herbicidal activity against Avena sterilis accession P09 assessed as weed survival at 1 times field recommended herbicide dose
# Avena sterilis [55] = assay: Herbicidal activity against Avena sterilis accession P05 assessed as induction of weed mortality
# Avena sterilis [56] = assay: Herbicidal activity against Avena sterilis accession P10S assessed as induction of weed mortality
# Avena sterilis [57] = assay: Herbicidal activity against Avena sterilis accession P16 assessed as weed survival at 1 times field recommended herbicide dose
# Avena sterilis [58] = assay: Herbicidal activity against Avena sterilis accession P17 assessed as weed survival at 8 times field recommended herbicide dose
# Avena sterilis [59] = assay: Herbicidal activity against Avena sterilis accession P09 assessed as weed survival at 8 times field recommended herbicide dose
smiles,measurement,setting,value
C#CCOC(=O)[C@@H](C)Oc1ccc(Oc2ncc(Cl)cc2F)cc1 [CLODINAFOP PROPARGYL],Survival,Avena sterilis [1],93%
same,Survival,Avena sterilis [2],0%
same,Survival,Avena sterilis [3],97%
same,Survival,Avena sterilis [4],57%
same,Survival,Avena sterilis [5],47%
same,GR50,Avena sterilis [6],>1312 gAi/ha
same,Survival,Avena sterilis [7],100%
same,Survival,Avena sterilis [8],77%
same,Survival,Avena sterilis [9],100%
same,GR50,Avena sterilis [10],508 gAi/ha
same,Survival,Avena sterilis [11],97%
same,GR50,Avena sterilis [12],>1312 gAi/ha
same,Survival,Avena sterilis [13],90%
same,Survival,Avena sterilis [14],60%
same,Survival,Avena sterilis [15],77%
same,Survival,Avena sterilis [16],63%
same,Survival,Avena sterilis [17],67%
same,Survival,Avena sterilis [18],93%
same,Survival,Avena sterilis [19],0%
same,Survival,Avena sterilis [20],50%
same,Survival,Avena sterilis [21],0%
same,Survival,Avena sterilis [22],100%
same,GR50,Avena sterilis [23],>1312 gAi/ha
same,Survival,Avena sterilis [24],80%
same,Survival,Avena sterilis [25],100%
same,Survival,Avena sterilis [26],80%
same,Survival,Avena sterilis [27],0%
same,GR50,Avena sterilis [28],11 gAi/ha
same,Survival,Avena sterilis [29],77%
same,Survival,Avena sterilis [30],43%
same,Survival,Avena sterilis [31],97%
same,Survival,Avena sterilis [32],0%
same,Survival,Avena sterilis [33],100%
same,GR50,Avena sterilis [34],<41 gAi/ha
same,Survival,Avena sterilis [35],97%
same,Survival,Avena sterilis [36],10%
same,GR50,Avena sterilis [37],1219 gAi/ha
same,GR50,Avena sterilis [38],29 gAi/ha
same,Survival,Avena sterilis [39],0%
same,Survival,Avena sterilis [40],100%
same,GR50,Avena sterilis [41],>1312 gAi/ha
same,Survival,Avena sterilis [42],97%
same,Survival,Avena sterilis [43],70%
same,Survival,Avena sterilis [44],80%
same,Survival,Avena sterilis [45],0%
same,Survival,Avena sterilis [46],80%
same,Survival,Avena sterilis [47],87%
same,Survival,Avena sterilis [48],20%
same,Survival,Avena sterilis [49],73%
same,GR50,Avena sterilis [50],>1312 gAi/ha
same,Survival,Avena sterilis [51],97%
same,Survival,Avena sterilis [52],97%
same,GR50,Avena sterilis [53],283 gAi/ha
same,Survival,Avena sterilis [54],63%
same,GR50,Avena sterilis [55],180 gAi/ha
same,GR50,Avena sterilis [56],8 gAi/ha
same,Survival,Avena sterilis [57],93%
same,Survival,Avena sterilis [58],40%
same,Survival,Avena sterilis [59],0%

# From ChEMBL document CHEMBL3046559, “Sterile oat (Avena sterilis L.) cross-resistance profile to ACCase-inhibiting herbicides in Greece” (2012)
